The values below come from US8309552B2, “Immunomodulating heterocyclic compounds” (Medigene AG, priority 2003, dated 2012).

Bounds are passed on as bounds.

This test has as its target T1, CD80-CD28 interaction (Homo sapiens, UniProt P33681).
T1 sequence (P33681 35-242 limits assumed): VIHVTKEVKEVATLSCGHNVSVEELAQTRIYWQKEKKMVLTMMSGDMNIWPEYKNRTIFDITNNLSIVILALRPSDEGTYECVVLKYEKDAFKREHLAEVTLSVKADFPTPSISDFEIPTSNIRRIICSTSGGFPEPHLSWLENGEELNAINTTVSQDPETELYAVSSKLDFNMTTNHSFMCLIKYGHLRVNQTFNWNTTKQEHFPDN
Nature of the test: Homogenous Time Resolved Fluorescence (HTRF) assay, cell free. Conditions: cell free HTRF assay; concentration series 100 μM-1.7 nM; 4 hours at room temperature; read-out: Activity (EC50 in the HTRF assay). The class given is binding. The procedure, abridged:
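Europium and APC labels were linked through antibodies to CD28 and CD80 fusion proteins. Compounds were tested at 100 μM-1.7 nM for 4 h at room temperature in 50 mM Tris-HCl, 150 mM NaCl pH7.8, 0.1% BSA. Emission read at 665 and 615 nm (excitation 340 nm); non-specific signal measured with C215 Fab in place of CD80; EC50 reported in bands.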
(TR-FRET usually uses a lanthanide donor and a delayed reading to cut background.)
What is called EC50 is the concentration giving half of the maximal effect. As for `CC(C)NCCCNC(=O)c1ccc(-n2[nH]c3c(nnc4ccc(F)cc43)c2=O)cc1` [Example 385], the concentration for a half-maximal effect (EC50) was below 1000 nM.

As to `O=C(NCCCCO)c1ccc(-n2[nH]c3c(nnc4ccc(F)cc43)c2=O)cc1` [Example 386], the 50% effective concentration (EC50) was below 1000 nM.

As for `CN(C)CCCNC(=O)c1ccc(-n2[nH]c3c(nnc4cccc(F)c43)c2=O)cc1` [Example 387], the concentration giving a half-maximal response (EC50) is below 1000 nM.

In the case of `O=C(NCCCCN1CCCC1)c1ccc(-n2[nH]c3c(nnc4cccc(F)c43)c2=O)cc1` [Example 388], the EC50 is below 1000 nM.

Take `O=C(NCCCNC1CCCCC1)c1ccc(-n2[nH]c3c(nnc4cccc(F)c43)c2=O)cc1` [Example 389]: the EC50 was below 1000 nM.

Take `CN1C(C)(C)CC(NC(=O)c2ccc(-n3[nH]c4c(nnc5cccc(F)c54)c3=O)cc2)CC1(C)C` [Example 390]: the half-maximal effective concentration (EC50) was below 1000 nM.

Consider `CN1CCC(NC(=O)c2ccc(-n3[nH]c4c(nnc5cccc(F)c54)c3=O)cc2)CC1` [Example 391], for which the concentration giving a half-maximal response (EC50) is below 1000 nM.

`CCN(CC)CCCNC(=O)c1ccc(-n2[nH]c3c(nnc4cccc(F)c43)c2=O)cc1` [Example 392]: the EC50 is below 1000 nM.

As for `O=C(NCCCN1CCCC1)c1ccc(-n2[nH]c3c(nnc4cccc(F)c43)c2=O)cc1` [Example 393], the EC50 is below 1000 nM.

Consider `CC1CCCCN1CCCNC(=O)c1ccc(-n2[nH]c3c(nnc4cccc(F)c43)c2=O)cc1` (stereo not shown) [Example 394], for which the half-maximal effective concentration (EC50) is below 1000 nM.

Turning to `CC(C)NCCCNC(=O)c1ccc(-n2[nH]c3c(nnc4cccc(F)c43)c2=O)cc1` [Example 395], the EC50 was below 1000 nM.

With `CNCCCNC(=O)c1ccc(-n2[nH]c3c(nnc4cccc(F)c43)c2=O)cc1` [Example 396], the 50% effective concentration (EC50) was below 1000 nM.

Turning to `O=C(NCCCN1CCOCC1)c1ccc(-n2[nH]c3c(nnc4cccc(F)c43)c2=O)cc1` [Example 397], the half-maximal effective concentration (EC50) is below 1000 nM.

On to `CCCCN(CCCC)CCCNC(=O)c1ccc(-n2[nH]c3c(nnc4cccc(F)c43)c2=O)cc1` [Example 398], for which the concentration for a half-maximal effect (EC50) is below 1000 nM.

With `O=C(NC1CCN(Cc2ccccc2)C1)c1ccc(-n2[nH]c3c(nnc4cccc(F)c43)c2=O)cc1` (stereo not shown) [Example 399], the concentration for a half-maximal effect (EC50) was below 1000 nM.

With `CC(C)(C)NC(=O)c1ccc(-n2[nH]c3c(nnc4cccc(F)c43)c2=O)cc1` [Example 400], the concentration giving a half-maximal response (EC50) was below 1000 nM.

For `O=C(NC1CN2CCC1CC2)c1ccc(-n2[nH]c3c(nnc4cccc(F)c43)c2=O)cc1` (stereo not shown) [Example 401], the EC50 was below 1000 nM.

As to `O=C(c1ccc(-n2[nH]c3c(nnc4cccc(F)c43)c2=O)cc1)N1CCC(N2CCCCC2)CC1` [Example 402], the concentration for a half-maximal effect (EC50) lay within 1000 to 10000 nM.

With `CC1(C)CC(NC(=O)c2ccc(-n3[nH]c4c(nnc5cccc(F)c54)c3=O)cc2)CC(C)(C)N1` [Example 403], the half-maximal effective concentration (EC50) is below 1000 nM.

In the case of `CN(C)CC(C)(C)CNC(=O)c1ccc(-n2[nH]c3c(nnc4cccc(F)c43)c2=O)cc1` [Example 404], the EC50 was below 1000 nM.

For `NC1CCC(NC(=O)c2ccc(-n3[nH]c4c(nnc5cccc(F)c54)c3=O)cc2)CC1` (stereo not shown) [Example 405], the 50% effective concentration (EC50) is below 1000 nM.

For `Cc1ccc2nnc3c(=O)n(-c4ccc(C(=O)NCCCN(C)C)cc4)[nH]c3c2c1` [Example 406], the EC50 was below 1000 nM.

Consider `Cc1ccc2nnc3c(=O)n(-c4ccc(C(=O)NCCCNC5CCCCC5)cc4)[nH]c3c2c1` [Example 407], for which the EC50 is below 1000 nM.

`Cc1ccc2nnc3c(=O)n(-c4ccc(C(=O)NC5CC(C)(C)N(C)C(C)(C)C5)cc4)[nH]c3c2c1` [Example 408]: the concentration giving a half-maximal response (EC50) was below 1000 nM.

On to `Cc1ccc2nnc3c(=O)n(-c4ccc(C(=O)NCCCCN5CCCC5)cc4)[nH]c3c2c1` [Example 409], for which the concentration for a half-maximal effect (EC50) was below 1000 nM.

Regarding `NC1CCC(NC(=O)c2ccc(-n3[nH]c4c(nnc5c(F)cccc54)c3=O)cc2)CC1` (stereo not shown) [Example 410], the EC50 was below 1000 nM.

In the case of `CN(C)CCCNC(=O)c1ccc(-n2[nH]c3c(nnc4c(Cl)cccc43)c2=O)cc1` [Example 411], the EC50 is below 1000 nM.

In the case of `O=C(NCCCNC1CCCCC1)c1ccc(-n2[nH]c3c(nnc4c(Cl)cccc43)c2=O)cc1` [Example 412], the EC50 is below 1000 nM.
